According to ChEMBL document CHEMBL5727681, “Alkoxy compounds for disease treatment” (2020):

test: In Vitro Isomerase Inhibition Assay: Isomerase inhibition reactions were performed essentially as described (Stecher et al., J Biol. Chem. 274:8577-85 (1999).

IC50 [nM] | Compound
< 100 | NCCCc1cccc(OCC2CCCCC2)c1
< 100 | NCCOc1cccc(OCC2CCCCCC2)c1
< 100 | NCCC(=O)c1cccc(OCC2CCCCCC2)c1
< 100 | NCCOc1cccc(OCC2CCCCC2)c1
< 100 | NCCC(=O)c1cccc(OCC2CCCCC2)c1

More lines, now with the values behind:

Compound | IC50 [nM]
CCC(CC)COc1cccc(CCCN)c1 | < 100
NCCC(O)c1cccc(OCC2(O)CCCCC2)c1 (stereo unspecified) | < 100
CCCC(CCC)COc1cccc(CCCN)c1 | < 100
NCCCc1cccc(OCC2(O)CCCCC2)c1 | < 100
NCC(O)Cc1cccc(OCC2CCCCC2)c1 (stereo unspecified) | < 100
CCCC(O)(CCC)COc1cccc(C(O)CCN)c1 (stereo unspecified) | < 100
